# Earlier results as cited in US20040224037A1, “Devastating treatment against hiv/aids with capsaicin” (priority 2003, published 2004).
# Read-outs that look alike come from different tables or passages of the source. Ends that are not written are not given here.
# Key:
# [1] = tested on: proliferating macrophages from the blood of four patients with AIDS dementia
# masT cells = settings: suspensions of mast cells in rats
# [2] = tested on: guinea pig peritoneal macrophages
# rats [3] = settings: for blood pressure and heart rate after pretreatment: previous anesthesia, Capsaicin pretreatment 100 mg during four days
# macrophages = settings: in vitro
# [4] = tested on: histamine and 5-hydroxitryptamine; settings: treatment with Capsaicin in rats
# herpes simplex = settings: sc. administration, rats infected with herpes simplex
# b-endorphin = settings: rats; 3,5,7 and 15 days after Capsaicin administration
# dogs [5] = tested on: dogs
# rats [6] = settings: iv. treatment, also printed 0.5 mg/kg
# tongue = settings: Nelson 1910
# dogs [7] = settings: 10 mcg/kg iv. in dogs
# rats [8] = settings: 18 mcg/kg injected, anesthesia, pretreatment 4,8,16 and 200 mg/kg each 12 hours
# [9] = tested on: intestinal glucose absorption; settings: 140 mcg/ml, rats in vitro
# substance p(sp) = settings: pretreatment with Capsaicin in rats
# rats [10] = settings: higher doses reduced acid output
# [11] = tested on: [4-(methylnitrosamino)-1-(3-pyridyl)-1-butanone] nnk
# [12] = tested on: enzyme (cyp2e1) of cytochrome p4502e1; settings: in the liver
# Sequence of enzyme (cyp2e1) of cytochrome p4502e1 (P05181 whole entry, species assumed): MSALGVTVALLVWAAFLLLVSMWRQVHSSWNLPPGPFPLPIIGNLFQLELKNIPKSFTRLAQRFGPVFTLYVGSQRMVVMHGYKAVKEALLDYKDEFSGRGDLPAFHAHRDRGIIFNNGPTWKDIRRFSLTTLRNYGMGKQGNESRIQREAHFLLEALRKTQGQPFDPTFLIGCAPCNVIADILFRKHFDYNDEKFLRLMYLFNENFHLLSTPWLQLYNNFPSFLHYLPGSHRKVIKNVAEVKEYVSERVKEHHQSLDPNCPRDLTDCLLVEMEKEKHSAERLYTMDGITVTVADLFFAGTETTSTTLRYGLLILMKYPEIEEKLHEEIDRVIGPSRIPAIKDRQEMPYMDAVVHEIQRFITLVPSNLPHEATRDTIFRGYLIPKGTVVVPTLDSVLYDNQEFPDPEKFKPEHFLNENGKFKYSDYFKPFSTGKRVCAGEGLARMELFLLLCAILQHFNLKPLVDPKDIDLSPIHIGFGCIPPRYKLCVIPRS
# cats and dogs = settings: 50 mcg/kg iv. in cats and dogs
# [13] = Capsaicin administration at high concentration
# nk cells = settings: deviation of more or less 11.5%
# Sprague-Dawley cd rats = settings: pregnant rats, 0, 500 or 5000 mg/kg/day
compound,measurement,setting,value
"CCNCCCCNCCCCNCCCCNCCCCNCC [BE-4444, 1,19-bis(ethylamino)-5,10,15-triazanonadecane]",effect on proliferating macrophages,[1],potent effect of inhibition
"CCNCCCNC[C@@H]1C[C@@H]1CNCCCNCC.Cl.Cl.Cl.Cl [SL-11037, n-ethyl-n′-(2-(3′-ethylamino-propylaminomethyl)-cis-cyclopropylmethyl)-propane 1,3-diamine tetrahydrochloride]",effect on proliferating macrophages,[1],potent effect of inhibition
"COc1cc(CNC(=O)CCCCCCC(C)C)ccc1O [dihydroCapsaicin, 8-methylnonanoic acid vanillylamide]",effect on growth / activity,Clostridium sporogenes,did not show activity
same,effect on growth / activity,Bacillus subtilis,did not show activity
same,effect on growth / activity,Bacillus cereus,did not show activity
same,activity,Staphylococcus aureus,did not show activity
same,activity,Salmonella typhimurium,did not show activity
same,effect on growth / activity,Streptococcus pyogenes,did not show activity
same,activity,Candida albicans,did not show activity
same,activity,Escherichia coli,did not show activity
"kallidin: neuropeptide provoking histamine release (KRPPGFSPFR; Lysyl-bradykinin; UniProt P01042 380-389, looked up)","power in provoking histamine release, compared with substance p and polisteskinin",masT cells,Less powerful
CCNCCCNC/C=C/CNCCCNCC [SL-11048],effect on proliferating macrophages,[1],potent effect of inhibition
"CCNCCCNC/C=C\CNCCCNCC.Cl.Cl.Cl.Cl [SL-11047, N′-bis (3-ethylaminopropyl)-cis-but-2-ene-1,4-diamine tetrahydrochloride]",effect on proliferating macrophages,[1],potent effect of inhibition
"arg-pro-lys-pro-gln-gln-phe-phe-gly-leu-met-nh2 (RPKPQQFFGLM-NH2; UniProt P20366 58-68, looked up) [Substance p (sp), undecapeptide neuropeptide]","macrophage activation, liberation of reactive oxygen species",[2],activated such macrophages
same,phagocytosis,macrophages of mice,stimulates phagocytosis
same,phagocytosis,human leucocytes,stimulates phagocytosis
CCO [ethanol],blood alcohol concentration,human; 0.5 fluid ounces (about 15 ml) in a 150 pound human,0.02%
same,blood alcohol concentration that starts to produce measurable mental impairment,human; in vivo,0.05%
same,fraction processed by the liver,human; in vivo,over 90%
"CCNCCCNCCCNCCCNCC [Denop, diethylnospermine]",effect on proliferating macrophages,[1],potent effect of inhibition
"CCNCCCNC[C@@H]1CC[C@H]1CNCCCNCC.Cl.Cl.Cl.Cl (relative stereo) [SL-11038, N-ethyl-N′-(2-(3′-ethylamino-propylaminomethyl)-trans-cyclobutylmethyl)-propane 1,3-diamine tetrahydrochloride]",effect on proliferating macrophages,[1],potent effect of inhibition
CN1[C@@H]2CC[C@H]1C[C@@H](OC(=O)C(CO)c1ccccc1)C2 (some centres unmarked) [atropine],counteraction of the effect of Capsaicin,"rats [3]; rat, in vivo",able to counteract the effect of Capsaicin
C=CCc1ccc(O)c(OC)c1 [eugenol],"concentration required to completely inhibit reactive oxygen species, compared with Capsaicin",macrophages,Higher concentrations
methionyl-lysyl-bradykinin,"power in provoking histamine release, compared with substance p and polisteskinin",masT cells,Less powerful
"CCNCCCNC[C@@H]1C[C@H]1CNCCCNCC.Cl.Cl.Cl.Cl (relative stereo) [SL-11044, N-ethyl-N′-(2-(3′-ethylamino-propylaminomethyl)-trans-cyclopropylmethyl)-propane 1,3-diamine tetrahydrochloride]",effect on proliferating macrophages,[1],potent effect of inhibition
"COc1cc(CNC(=O)CCCC/C=C/C(C)C)ccc1O [Capsaicin, 8-methyl-n-vanillyl-6-nonenamide]",effect on growth / activity,Clostridium sporogenes,did not show activity
same,histamine and 5-hydroxitryptamine,[4],increment
same,mortality,herpes simplex,reduced mortality
same,b-endorphin concentration in the hypothalamus,b-endorphin,decreased
same,effect on growth / activity,Bacillus subtilis,did not show activity
same,respiratory effect,"dogs [5]; administration rate 10-20 mcg/kg/min, dogs","fast superficial respiration, but without apnea"
same,respiratory effect,"dogs [5]; injected 0.5-20 mcg/kg, dogs anesthetised with chloralose","apnea, followed by a fast superficial respiration"
same,"production of anions superoxides, peroxide of hydrogen and nitrites by macrophages",macrophages; 10 mcm,completely inhibited
same,growth (cancer),cancer,inhibit growth at low concentration
same,letal dose,rats [6],0.5 mg/kg
same,GLINSUKON EXP (LD50),"mice; ig. adm, mice",67 mg/kg
same,"GLINSUKON EXP (LD50), value in brackets","mice; ig. adm, mice, second value in brackets",190 mg/kg
same,GLINSUKON EXP (LD50),"mice; iv. adm, mice",0.5 mg/kg
same,LD50,"mice; iv., male mice",0.56 mg/kg
same,GLINSUKON EXP (LD50),"mice; sc. adm, mice",8.5 mg/kg
same,toxicity effect measured by LD50 compared between routes,"mice; sc., im., and intraperitoneal (ip.), mice",similar
same,time for area of hyperalgesia to reach a maximum,humans; 10 mcg intradermal,≤ 5 min
same,time to disappearance of hyperalgesia,humans; 10 mcg intradermal,≤ 15 min
same,time for area of hyperalgesia to reach a maximum,humans; 100 mcg intradermal,≤ 7 min
same,time to disappearance of hyperalgesia,humans; 100 mcg intradermal,≤ 137 min
same,concentration giving perceptible warmth on tongue,tongue; 1 ppm,1 µg/mL
same,concentration giving persistent burning on tongue,tongue; 10 ppm,10 µg/mL
same,effect on growth / activity,Bacillus cereus,did not show activity
same,effect of iv. dose,dogs [7],"apnea, bradycardia, hypotension"
same,Bezold-Jarisch reflex after pretreatment,rats [8],significant inhibition of the Bezold-Jarisch reflex
same,intestinal glucose absorption,[9],inhibitory effect
same,blood pressure and heart rate after pretreatment,"rats [3]; 1 mcg injected, rats",normal blood pressure and rate of the heart
same,effect of iv. dose on blood pressure and heart rate,rats [3]; 1 mcg or 3 mcg/kg iv. in rats,reproduced three phases
same,blood pressure and heart rate after pretreatment,rats [3]; 50 mcg slow infusion over 12 mins,normal blood pressure and rate of the heart
same,activity,Staphylococcus aureus,did not show activity
same,effect upon the substance p(sp) at intestinal level,substance p(sp),did not have effect
same,activity,Salmonella typhimurium,did not show activity
same,dose at which acid secretory response reached a maximum,rats [10],1 mg/kg
same,effect of iv. dose,cats; 200 mcg/kg iv. in cats,"bradycardia, apnea"
same,tension reduction,cats; 200 mcg/kg iv. in cats,46 mmhg
same,effect of iv. dose,cats; 400 mcg/kg iv. in cats,higher post-hypotension and a second period of apnea
same,effect on growth / activity,Streptococcus pyogenes,did not show activity
same,effect on tobacco specific carcinogen nnk,[11],inhibited
same,activity,Candida albicans,did not show activity
same,activity of enzyme cyp2e1,[12],capable to inhibit
same,blood pressure,cats and dogs,fast fallen in blood pressure
same,"drop of the pulse, first value",cats and dogs,108 min⁻¹
same,"drop of the pulse, second value",cats and dogs,24 min⁻¹
same,subsequent tachycardia,cats and dogs,160 min⁻¹
same,time after which recovery of the desensitization is not complete,[13],> 60 days
same,activity,Escherichia coli,did not show activity
"b-endorphin: group of protein with potent analgesic properties that occur naturally in the brain (YGGFMTSEKSQTPLVTLFKNAIIKNAYKKGE; Beta-endorphin; UniProt P01189 237-267, looked up)",proliferative response of lymphocytes,lymphocytes,increases
same,increase of activity of nk cells,nk cells,30.5%
polyoxyethylene sorbitan monooleate [tw80],signs of toxicity,Sprague-Dawley cd rats,no dose-related signs of toxicity
